Experimental data published in ChEMBL document CHEMBL5370649, “Novel Coumarin Derivatives Inhibit the Quorum Sensing System and Iron Homeostasis as Antibacterial Synergists against Pseudomonas aeruginosa” (J Med Chem, 2023).
The source made the active and inactive calls. No cut-off for these calls is given here.

Tests used:
Pseudomonas aeruginosa [1] = test: Synergistic antibacterial activity against Pseudomonas aeruginosa PAO1 infected in Balb/c mouse wound infection model assessed as healing degree of wound at 50 uM […],TOP QD for 3 days in presence of Ciprofloxacin; assay type: functional, organism-based; details: time 3.0 day
[2] = Inhibition of quorum sensing system in Pseudomonas aeruginosa PAO1-rhlA-gfp assessed as inhibition of GFP fluorescence expression at 1.25 to 20 uM and measured for 12 hrs at 15 mins interval by fluorescence assay; details: dose 1.25-20 µM
Pseudomonas aeruginosa [3] = test: Antibiofilm activity against Pseudomonas aeruginosa PAO1 in ABTGC medium assessed as inhibition of biofilm formation incubated for 24 hrs by crystal violet staining based absorbance assay; assay type: functional, organism-based; details: PAO1, 24 h
Pseudomonas aeruginosa [4] = test: Downregulation of filA expression in Pseudomonas aeruginosa PAO1 at 20 uM incubated for 24 hrs by RNA sequencing analysis; assay type: functional
Pseudomonas aeruginosa [5] = test: Downregulation of pilD expression in Pseudomonas aeruginosa PAO1 at 20 uM incubated for 24 hrs by RNA sequencing analysis; assay type: functional
Pseudomonas aeruginosa [6] = test: Synergistic antibacterial activity against Pseudomonas aeruginosa PAO1 infected in Balb/c mouse wound infection model assessed as reduction in bacterial survival rate at wounded area at 50 uM,TOP QD for 3 days in presence of Ciprofloxacin by CFU assay; assay type: functional; details: time 3 day
[7] = Toxicity in Balb/c mouse wound infection model infected with Pseudomonas aeruginosa PAO1 assessed as morphological changes in liver at 50 uM,TOP for 3 days in Tobramycin by H and E staining based analysis; assay type: tissue-based; details: in vivo, topical_or_ocular, 72 h, time 3 day
Pseudomonas aeruginosa [8] = test: Upregulation of pvdE expression in Pseudomonas aeruginosa PAO1 at 20 uM incubated for 24 hrs by RNA sequencing analysis; assay type: functional
Pseudomonas aeruginosa [9] = test: Downregulation of rhlA expression in Pseudomonas aeruginosa PAO1 at 20 uM incubated for 24 hrs by RNA sequencing analysis; assay type: functional
[10] = Toxicity in Balb/c mouse wound infection model infected with Pseudomonas aeruginosa PAO1 assessed as morphological changes in spleen at 50 uM,TOP for 3 days in Tobramycin by H and E staining based analysis; assay type: tissue-based; details: in vivo, topical_or_ocular, 72 h, time 3 day
[11] = Toxicity in Balb/c mouse wound infection model infected with Pseudomonas aeruginosa PAO1 assessed as morphological changes in lung at 50 uM,TOP for 3 days in Tobramycin by H and E staining based analysis; assay type: tissue-based; details: in vivo, topical_or_ocular, 72 h, time 3 day
Pseudomonas aeruginosa [12] = test: Downregulation of pilT expression in Pseudomonas aeruginosa PAO1 at 20 uM incubated for 24 hrs by RNA sequencing analysis; assay type: functional
Pseudomonas aeruginosa [13] = test: Downregulation of mexE expression in Pseudomonas aeruginosa PAO1 at 20 uM incubated for 24 hrs by RNA sequencing analysis; assay type: functional
[14] = Inhibition of quorum sensing system in Pseudomonas aeruginosa PAO1-lasB-gfp assessed as inhibition of GFP fluorescence expression at 1.25 to 20 uM and measured for 12 hrs at 15 mins interval by fluorescence assay; details: dose 1.25-20 µM
[15] = Inhibition of quorum sensing system in Pseudomonas aeruginosa PAO1-pqsA-gfp assessed as inhibition of GFP fluorescence expression at 1.25 to 20 uM and measured for 12 hrs at 15 mins interval by fluorescence assay; details: dose 1.25-20 µM
Pseudomonas aeruginosa [16] = test: Antibiofilm activity against in Pseudomonas aeruginosa PAO1 assessed as pilus formation at 5 to 40 uM incubated for 16 hrs by SEM analysis; assay type: functional, organism-based; details: dose 5-40 µM
Pseudomonas aeruginosa [17] = test: Downregulation of rhl expression in Pseudomonas aeruginosa PAO1 at 20 uM incubated for 24 hrs by RNA sequencing analysis; assay type: functional
[18] = Toxicity in Balb/c mouse wound infection model infected with Pseudomonas aeruginosa PAO1 assessed as morphological changes in heart at 50 uM,TOP for 3 days in Ciprofloxacin by H and E staining based analysis; assay type: tissue-based; details: in vivo, topical_or_ocular, 72 h, time 3 day
Pseudomonas aeruginosa [19] = test: Upregulation of pvdJ expression in Pseudomonas aeruginosa PAO1 at 20 uM incubated for 24 hrs by RNA sequencing analysis; assay type: functional
[20] = molecular target: T1, Transcriptional regulator MvfR (Pseudomonas aeruginosa PA14) (UniProt A0A072ZLE6); test: Inhibition of PqsR-mediated quorum sensing system in Pseudomonas aeruginosa PAO1 assessed as inhibition of pyocyanin production at 1.25 to 20 uM incubated for 24 hrs by absorbance based assay; details: dose 1.25-20 µM
T1 sequence (whole entry): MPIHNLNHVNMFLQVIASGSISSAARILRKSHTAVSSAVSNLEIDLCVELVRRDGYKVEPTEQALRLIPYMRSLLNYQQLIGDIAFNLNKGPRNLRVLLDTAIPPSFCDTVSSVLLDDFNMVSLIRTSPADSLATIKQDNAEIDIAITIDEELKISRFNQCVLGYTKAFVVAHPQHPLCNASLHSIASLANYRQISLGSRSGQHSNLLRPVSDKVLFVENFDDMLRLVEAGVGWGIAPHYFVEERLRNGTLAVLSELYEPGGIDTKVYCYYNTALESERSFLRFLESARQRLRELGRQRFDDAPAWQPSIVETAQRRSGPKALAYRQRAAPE

[21] = Toxicity in Balb/c mouse wound infection model infected with Pseudomonas aeruginosa PAO1 assessed as morphological changes in kidney at 50 uM,TOP for 3 days in Tobramycin by H and E staining based analysis; assay type: tissue-based; details: in vivo, topical_or_ocular, 72 h, time 3 day
Pseudomonas aeruginosa [22] = test: Downregulation of pilI expression in Pseudomonas aeruginosa PAO1 at 20 uM incubated for 24 hrs by RNA sequencing analysis; assay type: functional
[23] = Toxicity in Balb/c mouse wound infection model infected with Pseudomonas aeruginosa PAO1 assessed as morphological changes in heart at 50 uM,TOP for 3 days in Tobramycin by H and E staining based analysis; assay type: tissue-based; details: in vivo, topical_or_ocular, 72 h, time 3 day
Pseudomonas aeruginosa [24] = test: Synergistic antibacterial activity against Pseudomonas aeruginosa PAO1 infected in Balb/c mouse wound infection model assessed as reduction in bacterial infection at 50 uM,TOP QD for 3 days in presence of Ciprofloxacin by CFU assay; assay type: functional; parameters: scale not given: the % may be the effect or the level left; details: time 3 day
[25] = Toxicity in Balb/c mouse wound infection model infected with Pseudomonas aeruginosa PAO1 assessed as morphological changes in lung at 50 uM,TOP for 3 days in Ciprofloxacin by H and E staining based analysis; assay type: tissue-based; details: in vivo, topical_or_ocular, 72 h, time 3 day
Pseudomonas aeruginosa [26] = test: Antibiofilm activity against Pseudomonas aeruginosa PAO1 pvds-defective mutant assessed as inhibition of biofilm formation at 1.25 to 20 uM incubated for 24 hrs by crystal violet staining based absorbance assay; assay type: functional, organism-based; details: dose 1.25-20 µM
Pseudomonas aeruginosa [27] = test: Downregulation of mexA expression in Pseudomonas aeruginosa PAO1 at 20 uM incubated for 24 hrs by RNA sequencing analysis; assay type: functional
[28] = Toxicity in Zebrafish embryo assessed as survival rate of zebrafish larvae at 10 to 200 uM and mesured upto 120 hrs post fertilization; parameters: species or system Danio rerio; details: in vivo, dose 10-200 µM
[29] = Toxicity in Balb/c mouse wound infection model infected with Pseudomonas aeruginosa PAO1 assessed as morphological changes in spleen at 50 uM,TOP for 3 days in Ciprofloxacin by H and E staining based analysis; assay type: tissue-based; details: in vivo, topical_or_ocular, 72 h, time 3 day
Pseudomonas aeruginosa [30] = test: Synergistic antibacterial activity against Pseudomonas aeruginosa PAO1 infected in Balb/c mouse wound infection model assessed as healing degree of wound at 50 uM,TOP QD for 3 days and measured after 9 days in presence of Tobramycin; assay type: functional, organism-based; details: time 3.0 day
A549 = test: Cytotoxicity against human A549 cells assessed as reduction in cell viability upto 50 uM incubated for 24 hrs by MTT assay; assay type: toxicity, cell-based; details: a549, 24 h

With `Cc1ccc2oc(=O)cc(OCCCCCCC(=O)NO)c2c1` the Activity (Pseudomonas aeruginosa [1]) was “Active”, the inhibition [2] was “inactive” and the IC50 (Pseudomonas aeruginosa [3]) was 3.66 µM. The Activity (Pseudomonas aeruginosa [4]) was “Active”, the Activity (Pseudomonas aeruginosa [5]) was “Active” and the Activity (Pseudomonas aeruginosa [6]) was 3.19%. For the same molecule, the Activity [7] was “Non-Toxic”, the Activity (Pseudomonas aeruginosa [8]) was “Active” and the Activity (Pseudomonas aeruginosa [9]) was “Active”. The Activity [10] was “Non-Toxic”, the Activity [11] was “Non-Toxic” and the Activity (Pseudomonas aeruginosa [12]) was “Active”. For the same molecule, the Activity (Pseudomonas aeruginosa [13]) was “Active”, the inhibition [14] was “Dose-Dependent Effect” and the inhibition [15] was “Dose-Dependent Effect”. For the same molecule, the Activity (Pseudomonas aeruginosa [16]) was “Dose-Dependent Effect”, the Activity (Pseudomonas aeruginosa [17]) was “Active” and the Activity [18] was “Non-Toxic”. For the same molecule, the Activity (Pseudomonas aeruginosa [19]) was “Active”, the inhibition [20] was “Dose-Dependent Effect” and the Activity [21] was “Non-Toxic”. The Activity (Pseudomonas aeruginosa [22]) was “Active”, the Activity [23] was “Non-Toxic” and the Activity (Pseudomonas aeruginosa [24]) was 100%. For the same molecule, the Activity [25] was “Non-Toxic”, the inhibition (Pseudomonas aeruginosa [26]) was “inactive” and the Activity (Pseudomonas aeruginosa [27]) was “Active”. For the same molecule, the Activity [28] was “Non-Toxic”, the Activity [29] was “Non-Toxic” and the Activity (Pseudomonas aeruginosa [30]) was “Active”. The Activity (A549) was “Non-Toxic”.
